Among the data in PubChem BioAssay (NCI) are GI50 and TGI values, retold here.

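How tested: cells in 96-well plates exposed to compound for 48 hours at five concentrations. GI50 marks 50% less growth. The concentration for full growth arrest is given as TGI.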 A value given as a limit tells only on which side of the number the result lay.

Holding throughout (assay): NCI anticancer screen, dose series, 48 h
Experiment [1] deals with OVCAR-8 ovarian.
Experiment [2] concerns SF-539 CNS.
For experiment [3], the system named is SK-MEL-5 melanoma.
Experiment [4] relates to KM12 colon.
The subject of experiment [5] is MDA-MB-231 breast.
In experiment [6] the test system is HOP-62 NSCLC.
For experiment [7], the system named is MOLT-4 leukemia.
For experiment [8], the system named is OVCAR-4 ovarian.
Experiment [9] deals with ACHN renal.
The test system of experiment [10] is EKVX NSCLC.

With `Cc1cc(N(CCCNc2ccnc3cc(Cl)ccc23)Cc2ccco2)nc(N2CCN(C)CC2)n1`, the GI50 in experiment [1] is 3.87 µM; in [2], 1.68 µM; in [3], 1.75 µM; in experiment [4] it was 3.73 µM; in experiment [5] it was 2.63 µM; in [6], 3.65 µM. Further, the GI50 in experiment [7] was 2.74 µM; in experiment [8], 3.59 µM; in experiment [9], 2.46 µM; in experiment [10], 4.99 µM. Moreover, the TGI in experiment [1] worked out at 16.8 µM; in experiment [2], 3.23 µM; in [3], 3.17 µM; in experiment [4], 16.7 µM; in [5] it was 8.72 µM; in experiment [6] it was 14.3 µM. Moreover, the TGI is 14 µM in [7], 19.6 µM in experiment [8], 6.51 µM in experiment [9] and 22 µM in experiment [10].

For the molecule `c1ccc(CCc2cccnc2)nc1`, the TGI in experiment [1], in experiment [2], in experiment [3], in experiment [4], in [5] and in [6] was over 100 µM throughout. The TGI in experiment [7], in experiment [8], in [9] and in experiment [10] was over 100 µM throughout.

In the case of `Cc1cc(C)nc(SC2=C(Nc3cc(Cl)ccc3O)C(=O)N(Cc3ccccc3)C2=O)n1`, the GI50 in experiment [1] is 27 µM; in [2], over 160 µM; in experiment [3], 38.9 µM; in [4], 27.4 µM; in [5] it was 16.8 µM; in [6], 27.6 µM. In addition, the GI50 in experiment [7] was 6.14 µM; in [8], 34 µM; in [9], 43.5 µM; in [10], 57.7 µM. Further, the TGI in experiment [1] is 110 µM; in experiment [2] it was over 160 µM; in experiment [3] it was over 160 µM; in experiment [4], 73.8 µM; in [5] it was 48 µM; in experiment [6], 101 µM. Moreover, the TGI in experiment [7] is 31.4 µM; in experiment [8], over 160 µM; in experiment [9], over 160 µM; in experiment [10], over 160 µM.
